From BindingDB's records for doi:10.1021/jm00121a046 (University of Kentucky, 1989)

Key:
[1] = target: Prostaglandin F2-alpha receptor (Sheep); assay: Binding potency towards Prostaglandin F2 alpha receptor (competitive binding) with natural [3H]-PGF 2 alpha in ovine luteal cells (OLC)
[2] = target: Prostaglandin F2-alpha receptor (Sheep); assay: as above; remark: listed apart in the source

IC50 [1]	IC50 [2]	SMILES
350 nM	–	[N-]=[N+]=Nc1ccc(CC[C@H](O)/C=C/[C@@H]2[C@@H](C/C=C\CCCC(=O)O)[C@@H](O)C[C@H]2O)cc1I
–	11 µM	[N-]=[N+]=Nc1cc(O)cc(OC[C@H](O)/C=C/[C@@H]2[C@@H](C/C=C\CCCC(=O)O)[C@@H](O)C[C@H]2O)c1
–	6.1 µM	[N-]=[N+]=Nc1ccc(CC[C@H](O)/C=C/[C@@H]2[C@@H](C/C=C\CCCC(=O)O)[C@@H](O)C[C@H]2O)c(O)c1
